Source: patent US20150344540A1, “NOVEL GLP-1 RECEPTOR AGONISTS WITH CHOLESTEROL EFFLUX ACTIVITY” (NOVO NORDISK A/S, priority 2012, published 2015)
Where two headings read alike, the source gives them in different places. Where a SMILES comes first, the peptide text is derived from it. [ ]: non-standard residue; d: D form. Aib = CC(C)(N)C(=O)O

Columns and labels:
[1] = Pharmacokinetics in mini-pigs after i.v. administration; settings: female, Göttingen, minipig, iv, 5 nmol/kg
Summary of the method: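 Female Göttingen mini-pigs (15-20 kg, N=3) received 5 nmol/kg i.v. via central venous catheter. Plasma levels of N-terminally intact peptide measured by LOCI immunoassay with N-terminal and mid-/C-terminal antibodies; non-compartmental analysis of individual profiles.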

human GLP-1 receptor = human GLP-1 receptor (Homo sapiens, UniProt P43220); test: Functional GLP-1 receptor assay, in vitro potency (CRE luciferase; whole cells); assay type: cell-based; settings: BHK cells expressing human GLP-1 receptor
Sequence of human GLP-1 receptor (P43220 24-463): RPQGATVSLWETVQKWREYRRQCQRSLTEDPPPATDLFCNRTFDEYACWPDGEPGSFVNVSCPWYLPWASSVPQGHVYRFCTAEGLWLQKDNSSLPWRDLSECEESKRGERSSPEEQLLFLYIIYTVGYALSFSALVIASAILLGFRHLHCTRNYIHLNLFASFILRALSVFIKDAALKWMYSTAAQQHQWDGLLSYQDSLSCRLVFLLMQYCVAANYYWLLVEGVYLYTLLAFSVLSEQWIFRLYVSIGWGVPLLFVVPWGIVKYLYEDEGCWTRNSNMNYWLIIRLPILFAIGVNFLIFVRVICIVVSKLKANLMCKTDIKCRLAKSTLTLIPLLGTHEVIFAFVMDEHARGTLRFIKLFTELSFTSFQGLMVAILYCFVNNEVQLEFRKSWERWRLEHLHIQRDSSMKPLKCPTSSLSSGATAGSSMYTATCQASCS

[2] = tested on: Mouse monocyte/macrophage cell line, RAW 264.7; test: Cholesterol efflux assay (3H-cholesterol, macrophage cell line); assay type: cell-based; settings: RAW 264.7, 4 hrs incubation, 0.1% human serum albumin; for 4 h Cholesterol Efflux Emax: ABCA1-mediated efflux
[3] = plasma, T1/2 Mean Value, Göttingen mini-pigs, N=3
[4] = 0% HSA, read-out: GLP1R CRE luc 0% HSA EC50 Mean Value
[5] = GLP1R CRE luc 1% HSA EC50 Mean Value, 1% HSA

CC[C@H](C)[C@H](NC(=O)[C@H](Cc1ccccc1)NC(=O)[C@H](CCC(=O)O)NC(=O)[C@H](CCCCN)NC(=O)[C@H](C)NC(=O)[C@H](C)NC(=O)[C@H](CCC(=O)O)NC(=O)CNC(=O)[C@H](CCC(=O)O)NC(=O)[C@H](CC(C)C)NC(=O)[C@H](Cc1ccc(O)cc1)NC(=O)[C@H](CO)NC(=O)[C@H](CO)NC(=O)[C@@H](NC(=O)[C@H](CC(=O)O)NC(=O)[C@H](CO)NC(=O)[C@@H](NC(=O)[C@H](Cc1ccccc1)NC(=O)[C@@H](NC(=O)CNC(=O)[C@H](CCC(=O)O)NC(=O)C(C)(C)NC(=O)[C@@H](N)Cc1c[nH]cn1)[C@@H](C)O)[C@@H](C)O)C(C)C)C(=O)N[C@@H](C)C(=O)N[C@@H](Cc1c[nH]c2ccccc12)C(=O)N[C@@H](CC(C)C)C(=O)N[C@H](C(=O)N[C@@H](CCC(=O)O)C(=O)N[C@@H](CCCCN)C(=O)NC(C)(C)C(=O)N[C@@H](CCCCN)C(=O)N[C@@H](CCC(=O)O)C(=O)N[C@@H](Cc1ccccc1)C(=O)N[C@@H](CC(C)C)C(N)=O)C(C)C [Compound 8, [Aib8,Glu23,Glu34,Lys35,Aib36,Lys37]-GLP-1-(7-37)-peptidyl-Glu-Phe-Leu amide] (H-H[Aib]EGTFTSDVSSYLEGEAAKEFIAWLVEK[Aib]KEFL-NH2)
C0 ([1]; plasma): 79.7 nM | Vd ([1]; plasma): 0.152 L/kg | clearance ([1]; plasma): 3.09 mL/h/kg | half-life ([1]; plasma, T1/2, mini-pigs): 32.8 h | half-life [1, 3]: 32.9 h | EC50 (human GLP-1 receptor; [4]): 0.163 nM | 4 h Cholesterol Efflux Emax [2]: 100%

CC[C@H](C)[C@H](NC(=O)[C@H](Cc1ccccc1)NC(=O)[C@H](CCC(=O)O)NC(=O)[C@H](CCCCN)NC(=O)[C@@H](NC(=O)[C@H](C)NC(=O)[C@H](CCC(=O)O)NC(=O)CNC(=O)[C@H](CCC(=O)O)NC(=O)[C@H](CC(C)C)NC(=O)[C@H](Cc1ccc(O)cc1)NC(=O)[C@H](CO)NC(=O)[C@H](CO)NC(=O)[C@@H](NC(=O)[C@H](CC(=O)O)NC(=O)[C@H](CO)NC(=O)[C@@H](NC(=O)[C@H](Cc1ccccc1)NC(=O)[C@@H](NC(=O)CNC(=O)[C@H](CCC(=O)O)NC(=O)C(C)(C)NC(=O)[C@@H](N)Cc1c[nH]cn1)[C@@H](C)O)[C@@H](C)O)C(C)C)C(C)C)C(=O)N[C@@H](C)C(=O)N[C@@H](Cc1c[nH]c2ccccc12)C(=O)N[C@@H](CC(C)C)C(=O)N[C@H](C(=O)N[C@@H](CCC(=O)O)C(=O)N[C@@H](CCCCN)C(=O)NC(C)(C)C(=O)N[C@@H](CCCCN)C(N)=O)C(C)C [Compound 11, [Aib8,Glu23,Val25,Glu34,Lys35,Aib36,Lys37]-GLP-1-(7-37)-peptide amide] (H-H[Aib]EGTFTSDVSSYLEGEAVKEFIAWLVEK[Aib]K-NH2)
C0 ([1]; plasma): 115 nM | Vd ([1]; plasma): 0.0613 L/kg | clearance ([1]; plasma): 54.9 mL/h/kg | half-life [1, 3]: 0.8 h | EC50 (human GLP-1 receptor; [4]): 0.015 nM | EC50 (human GLP-1 receptor; [5]): 0.004 nM | 4 h Cholesterol Efflux Emax [2]: 135%

CC(C)C[C@H](NC(=O)[C@H](Cc1ccccc1)NC(=O)[C@H](CCC(=O)O)NC(=O)[C@H](CCCCN)NC(=O)C(C)(C)NC(=O)[C@H](CCCCN)NC(=O)[C@H](CCC(=O)O)NC(=O)[C@H](CC(C)C)NC(=O)[C@H](CC(C)C)NC(=O)[C@H](Cc1c[nH]c2ccccc12)NC(=O)[C@H](CCC(N)=O)NC(=O)[C@@H](NC(=O)[C@H](Cc1ccccc1)NC(=O)[C@H](CCC(=O)O)NC(=O)[C@H](CCCNC(=N)N)NC(=O)[C@H](C)NC(=O)[C@H](C)NC(=O)[C@H](CCCCN)NC(=O)[C@H](CO)NC(=O)[C@H](CC(=O)O)NC(=O)[C@H](CC(C)C)NC(=O)[C@H](Cc1ccc(O)cc1)NC(=O)[C@H](CCCCN)NC(=O)[C@H](CO)NC(=O)[C@H](Cc1ccc(O)cc1)NC(=O)[C@H](CC(=O)O)NC(=O)[C@H](CO)NC(=O)[C@@H](NC(=O)[C@H](Cc1ccccc1)NC(=O)[C@@H](NC(=O)CNC(=O)[C@H](CCC(N)=O)NC(=O)C(C)(C)NC(=O)[C@@H](N)Cc1c[nH]cn1)[C@@H](C)O)[C@@H](C)O)C(C)C)C(N)=O [Compound 26] (H-H[Aib]QGTFTSDYSKYLDSKAAREFVQWLLEK[Aib]KEFL-NH2)
C0 ([1]; in vivo): 123 nM | Vd ([1]; in vivo): 0.0549 L/kg | clearance ([1]; in vivo): 5.21 mL/h/kg | half-life ([1]; in vivo): 7.3 h | EC50 (human GLP-1 receptor; GLP1R CRE luc 0% HSA EC50 Mean Value, 0% HSA): 0.393 nM | EC50 (human GLP-1 receptor; [5]): 0.153 nM | 4 h Cholesterol Efflux Emax [2]: 87% | EC50 ([2]; read-out: 4 h Cholesterol Efflux EC50, ABCA1-mediated efflux (CPT-cAMP induced minus non-induced)): 200 nM

CC[C@H](C)[C@H](NC(=O)[C@H](Cc1ccccc1)NC(=O)[C@H](CCC(=O)O)NC(=O)[C@H](CCCCN)NC(=O)[C@@H](NC(=O)[C@H](C)NC(=O)[C@H](CCC(=O)O)NC(=O)CNC(=O)[C@H](CCC(=O)O)NC(=O)[C@H](CC(C)C)NC(=O)[C@H](Cc1ccc(O)cc1)NC(=O)[C@H](CO)NC(=O)[C@H](CO)NC(=O)[C@@H](NC(=O)[C@H](CC(=O)O)NC(=O)[C@H](CO)NC(=O)[C@@H](NC(=O)[C@H](Cc1ccccc1)NC(=O)[C@@H](NC(=O)CNC(=O)[C@H](CCC(=O)O)NC(=O)C(C)(C)NC(=O)[C@@H](N)Cc1c[nH]cn1)[C@@H](C)O)[C@@H](C)O)C(C)C)C(C)C)C(=O)N[C@@H](C)C(=O)N[C@@H](Cc1c[nH]c2ccccc12)C(=O)N[C@@H](CC(C)C)C(=O)N[C@H](C(=O)N[C@@H](CCC(=O)O)C(=O)N[C@@H](CCCCN)C(=O)NC(C)(C)C(=O)NCC(=O)N[C@@H](CCC(=O)O)C(=O)N[C@@H](Cc1ccccc1)C(=O)N[C@@H](CC(C)C)C(N)=O)C(C)C [Compound 32] (H-H[Aib]EGTFTSDVSSYLEGEAVKEFIAWLVEK[Aib]GEFL-NH2)
C0 ([1]; plasma): 108 nM | Vd ([1]; plasma): 0.0769 L/kg | clearance ([1]; plasma): 1.04 mL/h/kg | half-life [1, 3]: 51.3 h | EC50 (human GLP-1 receptor; [4]): 0.039 nM | EC50 (human GLP-1 receptor; [5]): 0.013 nM | 4 h Cholesterol Efflux Emax [2]: 85%

CC[C@H](C)[C@H](NC(=O)[C@H](Cc1ccccc1)NC(=O)[C@H](CCC(=O)O)NC(=O)[C@H](CCCCN)NC(=O)[C@H](C)NC(=O)[C@H](C)NC(=O)[C@H](CCC(N)=O)NC(=O)CNC(=O)[C@H](CCC(=O)O)NC(=O)[C@H](CC(C)C)NC(=O)[C@H](Cc1ccc(O)cc1)NC(=O)[C@H](CO)NC(=O)[C@H](CO)NC(=O)[C@@H](NC(=O)[C@H](CC(=O)O)NC(=O)[C@H](CO)NC(=O)[C@@H](NC(=O)[C@H](Cc1ccccc1)NC(=O)[C@@H](NC(=O)CNC(=O)[C@H](CCC(=O)O)NC(=O)C(C)(C)NC(=O)[C@@H](N)Cc1c[nH]cn1)[C@@H](C)O)[C@@H](C)O)C(C)C)C(=O)N[C@@H](C)C(=O)N[C@@H](Cc1c[nH]c2ccccc12)C(=O)N[C@@H](CC(C)C)C(=O)N[C@H](C(=O)N[C@@H](CCC(=O)O)C(=O)N[C@@H](CCCCN)C(=O)NC(C)(C)C(=O)N[C@@H](CCCCN)C(=O)N[C@@H](CCC(=O)O)C(=O)N[C@@H](Cc1ccccc1)C(=O)N[C@@H](CC(C)C)C(N)=O)C(C)C [Compound 45, [Aib8,Glu34,Lys35,Aib36,Lys37]-GLP-1-(7-37)-peptidyl-Glu-Phe-Leu amide]
C0 ([1]; plasma): 147 nM | Vd ([1]; plasma): 0.154 L/kg | clearance ([1]; plasma): 2.39 mL/h/kg | half-life [1, 3]: 44.9 h | EC50 (human GLP-1 receptor; [4]): 0.108 nM | EC50 (human GLP-1 receptor; [5]): 0.042 nM | 4 h Cholesterol Efflux Emax [2]: 97%

CC[C@H](C)[C@H](NC(=O)[C@H](Cc1ccccc1)NC(=O)[C@H](CCC(=O)O)NC(=O)[C@H](CCCCN)NC(=O)[C@H](C)NC(=O)[C@H](C)NC(=O)[C@H](CCC(N)=O)NC(=O)CNC(=O)[C@H](CCC(=O)O)NC(=O)[C@H](CC(C)C)NC(=O)[C@H](Cc1ccc(O)cc1)NC(=O)[C@H](CO)NC(=O)[C@H](CO)NC(=O)[C@@H](NC(=O)[C@H](CC(=O)O)NC(=O)[C@H](CO)NC(=O)[C@@H](NC(=O)[C@H](Cc1ccccc1)NC(=O)[C@@H](NC(=O)CNC(=O)[C@H](CCC(=O)O)NC(=O)C(C)(C)NC(=O)[C@@H](N)Cc1c[nH]cn1)[C@@H](C)O)[C@@H](C)O)C(C)C)C(=O)N[C@@H](C)C(=O)N[C@@H](Cc1c[nH]c2ccccc12)C(=O)N[C@@H](CC(C)C)C(=O)N[C@H](C(=O)N[C@@H](CCCCN)C(=O)N[C@@H](CCCCN)C(=O)NC(C)(C)C(=O)NCC(=O)N[C@@H](CCC(=O)O)C(=O)N[C@@H](Cc1ccccc1)C(=O)N[C@@H](CC(C)C)C(N)=O)C(C)C [Compound 48]
C0 ([1]; plasma): 85.5 nM | Vd ([1]; plasma): 0.0743 L/kg | clearance ([1]; plasma): 6.3 mL/h/kg | half-life [1, 3]: 8.3 h | EC50 (human GLP-1 receptor; [4]): 0.045 nM | EC50 (human GLP-1 receptor; [5]): 0.015 nM | 4 h Cholesterol Efflux Emax [2]: 71%

CC[C@H](C)[C@H](NC(=O)[C@H](Cc1ccccc1)NC(=O)[C@H](CCC(=O)O)NC(=O)[C@H](CCCCN)NC(=O)[C@@H](NC(=O)[C@H](C)NC(=O)[C@H](CCC(=O)O)NC(=O)CNC(=O)[C@H](CCC(=O)O)NC(=O)[C@H](CC(C)C)NC(=O)[C@H](Cc1ccc(O)cc1)NC(=O)[C@H](CO)NC(=O)[C@H](CO)NC(=O)[C@@H](NC(=O)[C@H](CC(=O)O)NC(=O)[C@H](CO)NC(=O)[C@@H](NC(=O)[C@H](Cc1ccccc1)NC(=O)[C@@H](NC(=O)CNC(=O)[C@H](CCC(=O)O)NC(=O)C(C)(C)NC(=O)[C@@H](N)Cc1c[nH]cn1)[C@@H](C)O)[C@@H](C)O)C(C)C)C(C)C)C(=O)N[C@@H](C)C(=O)N[C@@H](Cc1c[nH]c2ccccc12)C(=O)N[C@@H](CC(C)C)C(=O)N[C@H](C(=O)N[C@@H](CCC(=O)O)C(=O)N[C@@H](CCCCN)C(=O)NC(C)(C)C(=O)N[C@@H](CCCCN)C(=O)N[C@@H](CCC(=O)O)C(=O)N[C@@H](Cc1ccccc1)C(N)=O)C(C)C [Compound 62, [Aib8,Glu23,Val25,Glu34,Lys35,Aib36,Lys37]-GLP-1-(7-37)-peptidyl-Glu-Phe amide] (H-H[Aib]EGTFTSDVSSYLEGEAVKEFIAWLVEK[Aib]KEF-NH2)
C0 ([1]; plasma): 50.6 nM | Vd ([1]; plasma): 0.0654 L/kg | clearance ([1]; plasma): 2.66 mL/h/kg | half-life [1, 3]: 16.7 h | EC50 (human GLP-1 receptor; [4]): 0.022 nM | EC50 (human GLP-1 receptor; [5]): 0.015 nM | 4 h Cholesterol Efflux Emax [2]: 111%
